Experimental findings from patent publication US20070071727A1, “Melanocytes in therapy of neurodegenerative diseases” (priority 2003, published 2007) are described below.

Test [1] deals with Parkinson's melanocytes and normal adult control melanocytes. Nature of the test: short time exposure (24 h), DNA synthesis by 3HdT incorporation and scintillation counts. It counts as cell-based, human. The conditions noted are these: 24 h exposure; 0.5 μg/ml to 5.0 μg/ml.
The test system of a further test is control melanocytes. It counts as cell-based, human. The conditions noted are these: 10 days exposure; only at the highest concentration step 5.0 μg/ml.

Molecules are shown by their SMILES.

Consider `CCCCC[C@H](O)/C=C/[C@H]1[C@H](O)CC(=O)[C@@H]1C/C=C\CCCC(=O)O` [PGE2], for which the “difference in vulnerability between Parkinson's melanocytes and normal adult control melanocytes (DNA synthesis, 3HdT incorporation)” value (“difference” below) in test [1] is reported as “no significant different in vulnerability”.
For the compound `CCCCC[C@H](O)/C=C/[C@H]1C=CC(=O)[C@@H]1C/C=C\CCCC(=O)O` [PGA2], in test [1], the “difference” value is recorded as “no significant different in vulnerability”. In addition, the “impact on the growth of the control melanocytes” value in the test on control melanocytes is listed as “negative impact on the growth”.
As for `CCCCC[C@H](O)/C=C/[C@H]1C(=O)C=C[C@@H]1C/C=C\CCCC(=O)O` [PGJ2], in test [1], the “difference” value is “no significant different in vulnerability”. Further, in the test on control melanocytes, the “impact on the growth of the control melanocytes” value is on record as “negative impact on the growth”.
Regarding `CCCCC[C@H](O)/C=C/[C@@H]1[C@@H](C/C=C\CCCC(=O)O)[C@@H](O)C[C@H]1O` [PGF2a], the “difference” value in test [1] is on record as “no significant different in vulnerability”.
